Experimental data reported in BindingDB's records for doi:10.1016/0960-894X(96)00018-2 (1996).

Biological target: T1, Prostatic acid phosphatase (Homo sapiens, UniProt P15309)
T1 sequence (P15309 whole entry): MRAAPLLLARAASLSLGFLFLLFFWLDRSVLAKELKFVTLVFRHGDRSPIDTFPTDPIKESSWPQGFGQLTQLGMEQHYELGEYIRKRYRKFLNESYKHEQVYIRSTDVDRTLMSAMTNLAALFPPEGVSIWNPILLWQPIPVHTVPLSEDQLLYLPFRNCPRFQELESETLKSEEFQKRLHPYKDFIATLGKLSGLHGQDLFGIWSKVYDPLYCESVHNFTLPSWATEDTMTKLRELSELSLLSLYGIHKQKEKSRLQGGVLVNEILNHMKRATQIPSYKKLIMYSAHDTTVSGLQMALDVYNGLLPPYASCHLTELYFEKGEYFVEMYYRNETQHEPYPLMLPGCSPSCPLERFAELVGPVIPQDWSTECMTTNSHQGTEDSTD
Assay: ChEBML_158626
Procedure: Inhibition of human prostatic acid phosphatase was determined as inhibition of the hydrolysis of tyrosine phosphate

| SMILES | IC50 [µM] |
| --- | --- |
| OP(O)(O)=c1c2ccccc2ccc2ccccc12 [(5H-Dibenzo[a,d]cyclohepten-5-yl)-phosphonic acid] | > 100 |
| OP(O)(O)=c1c2ccccc2sc2ccccc12 [(9H-Thioxanthen-9-yl)-phosphonic acid] | > 100 |
